Measured values from patent US11957661B2, “JAK1 pathway inhibitors for the treatment of vitiligo” (Incyte Corporation, priority 2020, dated 2024).

Assays:
Format in all cases: cell-based
Normal Human Melanocytes [1] = experiment: Protein analysis (Luminex) of melanocyte media after 20% CD8+ T cell conditioned media; settings: for IL-8, protein melanocyte media: melanocytes under stress conditions
Procedure: (§1) Melanocyte Proliferation Step: Normal Human Melanocytes isolated from a donor's neonatal foreskin epidermis were purchased (MatTek). They were thawed and seeded following manufacturer's instruction in NHM-GM media in flat bottom 96 well plates (Costar) for 18 hours at 37 C and 5% CO2. They were approximately 10% confluent when treated with 20% CD8+ T cell Conditioned Media (25 ul Conditioned media added to 100 ul of NHM-GM already in the wells). They were cultured for 48 hours at 37 C and 5% CO2 inside the Incucyte Live-Cell Analysis System (Essen Bioscience) with 5 images per well taken every 3 hrs. After 48 hours, all the supernatants were transferred from the melanocyte plates to new V-bottom plates and centrifuged at 1300 RPMs for 10 minutes. Supernatants were collected and were stored at −80 C and then thawed for protein analysis by Luminex technology (custom Procarta 45-plex, Thermo Fisher Scientific). The treated melanocytes were lysed using the Quantigene sample processing kit reagents following the kit instructions. Lysates were stored at −80 C and then thawed for RNA analysis by Luminex technology using two custom Quantigene 80-Plexes for a total of 150 targeted genes (Thermo Fisher Scientific). Incucyte images were analyzed using the Incucyte software and the percentage of melanocyte confluence was determined for each treatment.

Normal Human Melanocytes [2] = experiment: Melanocyte proliferation assay with 20% CD8+ T cell conditioned media; settings: for suppressed melanocyte proliferation response: 1000 nM co-cultured with CD3/CD28-activated human CD8+ T cells, 20% conditioned media; for spontaneous proliferation compared to the natural melanocyte proliferation rate: added to the inflammatory culture media, time-dependent
Procedure: The assay investigates an in vitro system using CD8+ T Cells and melanocytes. The assay tests whether Compound 1 modulates the inflammatory response and how such modulation affects melanocyte biology.
(§2) Methods: CD8+ T cell Conditioned Media Step: Normal Human CD8+ T Cells from peripheral blood were purchased ([…] Technologies). They were cultured for 48 hours at 37 C and 5% CO2 under activating and unactivating conditions inside the Incucyte Live-Cell Analysis System (Essen Bioscience). Activated T cells were cultured in a flat bottom 96 well plate (Costar) that was first coated with 10 ug/ml anti-CD3 (BD Biosciences) for 2 hours at room temperature and then washed one time with PBS before cells were added. They were grown in Melanocyte Growth Medium (NHM-GM, MatTek) containing 1 ug/ml anti-CD28 (BD Biosciences). Unactivated T cells were treated the same way except that they were cultured in a separate plate without anti-CD3 and anti-CD28. Each T cell plate was treated at seeding with Compound 1 (1000, 100, or 10 nM) or media alone. Each treatment was done in triplicate. After 48 hours, all the samples (T cells and media) were transferred to new V-bottom plates and centrifuged at 1300 RPMs for 10 minutes. Supernatants were collected from the T cell pellets carefully to not disturb the pellet. The supernatants (CD8+ T cell Conditioned Media) used fresh to treat the melanocyte. The remaining amounts were stored at −80 C and then thawed for protein analysis by Luminex technology (custom Procarta 45-plex, Thermo Fisher Scientific). The treated CD8+ T cell pellets were lysed using the Quantigene sample processing kit reagents following the kit instructions. Lysates were stored at −80 C and then thawed for RNA analysis by Luminex technology using two custom Quantigene 80-Plexes—150 targeted genes total (Thermo Fisher Scientific).
as §1
The assay investigates an in vitro system using CD8+ T Cells and melanocytes. The assay tests whether ruxolitinib modulates the inflammatory response and how such modulation affects melanocyte biology. […]

[3] = system: CD3/CD28-activated human CD8+ T cells; experiment: Protein analysis (Luminex) of CD8+ T cell conditioned media; settings: for LIF, T cells: T cell data
Procedure: as §2
as §2, with “ruxolitinib” for “Compound 1”

[4] = melanocytes treated with activated T cell conditioned media
[5] = co-cultured with CD3/CD28-activated human CD8+ T cells

With Cc1n[nH]c(C)c1-c1cnn(C2(CC#N)CN(c3cc(F)c(C(=O)N[C@@H](C)C(F)(F)F)cc3F)C2)c1 [Compound 1, 4-[3-(cyanomethyl)-3-(3′,5′-dimethyl-1H,1′H-4,4′-bipyrazol-1-yl)azetidin-1-yl]-2,5-difluoro-N-[(1S)-2,2,2-trifluoro-1-methylethyl]benzamide] the “increase of IL-8” value (Normal Human Melanocytes [1]; melanocyte culture) was ~450%, the “reduction of HGF levels” value (Normal Human Melanocytes [1]; melanocyte culture supernatants after activated T cell conditioned media) was ~67% and the “inflammatory cytokines that are JAK-STAT dependent, protein melanocyte media” value (Normal Human Melanocytes [1]; [4]) was “reduces”. The “IL-8, protein melanocyte media” value (Normal Human Melanocytes [1]) was “increased”, the “suppressed melanocyte proliferation response” value (Normal Human Melanocytes [2]) was “partially reversed” and the “spontaneous proliferation compared to the natural melanocyte proliferation rate” value (Normal Human Melanocytes [2]) was “significant reduction”. The “melanocyte proliferation (% confluence)” value (Normal Human Melanocytes [2]; following transfer of 20% unactivated T cell media) was “does not directly alter”, the “LIF, T cells” value [3] was “on-target inhibition” and the “additional mediators not obligated to use JAK1 signaling (growth factors and chemokine), protein T cell media” value [3, 5] was “reduced”. For the same compound, the “inflammatory cytokines that are JAK-STAT dependent, protein T cell media” value [3, 5] was “inhibits”.
With N#CC[C@H](C1CCCC1)n1cc(-c2ncnc3[nH]ccc23)cn1 [ruxolitinib] the “IL-10, protein melanocyte media” value (Normal Human Melanocytes [1]; [4]) was “no effect”, the “IL-13, protein melanocyte media” value (Normal Human Melanocytes [1]; [4]) was “no effect” and the “inflammatory cytokines that are JAK-STAT dependent, protein melanocyte media” value (Normal Human Melanocytes [1]; [4]) was “reduces”. The “IL-8, protein melanocyte media” value (Normal Human Melanocytes [1]) was “reduced”, the “suppressed melanocyte proliferation response” value (Normal Human Melanocytes [2]) was “completely reverse” and the “spontaneous proliferation compared to the natural melanocyte proliferation rate” value (Normal Human Melanocytes [2]) was “significant reduction”. The “LIF, T cells” value [3] was “on-target inhibition”, the “IL-2, protein T cell media” value [3, 5] was “upregulated” and the “IL-4, protein T cell media” value [3, 5] was “no effect”. For the same compound, the “IL-5, protein T cell media” value [3, 5] was “no effect”, the “IL-6, protein T cell media” value [3, 5] was “no effect” and the “additional mediators not obligated to use JAK1 signaling (growth factors and chemokine), protein T cell media” value [3, 5] was “reduced”. For the same compound, the “inflammatory cytokines that are JAK-STAT dependent, protein T cell media” value [3, 5] was “inhibits” and the “IL-8 concentration, CD8+ T cells” value ([3]; treatment of CD8+ T cells) was “slightly reduced”.
